Reference: paper PMC12543283, “TastepepAI: An artificial intelligence platform for taste peptide de novo design” (PLOS Computational Biology, 2025)
Where two headings read alike, the source gives them in different places. Ends that are not written are not given here.

What was measured:
[1] = known from earlier studies; cited from earlier work
From the text: To address these experimental challenges, various computational and artificial intelligence-based approaches for taste peptide identification have emerged. Most reported methods focus on predicting single taste properties, such as BERT4Bitter and iBitter-SCM [42] for bitter peptide identification, while iUmami-SCM [43], Umami-MRNN [[44], iUmami-DRLF [45], and Umami-gcForest are dedicated to umami peptide prediction. Additionally, a few models like Umami_YYDS [35] have been reported to perform binary classification for umami and bitter tastes. However, current methodologie ...

[2] = tested on: red blood cells from 6-week-old BALB/c mice (mRBCs); assay: Hemolysis assay; type: cell-based, mouse; conditions: mean of Data1-3; 100 μM peptide, 1.5 × 10^8 cells/mL mRBCs, 37°C, 60 min, absorbance 490 nm; PBS 0% and 1% Triton X-100 100% controls
Description: The hemolytic activity of synthetic peptides was evaluated using red blood cells from 6-week-old BALB/c mice (mRBCs). Freshly isolated mRBCs were washed three times with PBS buffer (8000 rpm, 2 min per wash) to prepare the mRBC suspension. Equal volumes (70 μL) of 200 μM peptide solutions and mRBC suspension were mixed to achieve final concentrations of 100 μM peptide and 1.5 × 10^8 cells/mL mRBCs in the reaction system. After incubation with shaking at 37°C for 60 min, samples were centrifuged at 10000 rpm for 5 min, and hemoglobin release was assessed by measuring the absorbance of the supernatant at 490 nm. PBS and 1% Triton X-100 treatments served as 0% and 100% hemolysis controls, respectively. A complete dataset of hemolytic activity measurements is documented in S4 Data.

[3] = tested on: human embryonic kidney cells (HEK293T)
[4] = tested on: human umbilical vein endothelial cells (HUVEC)
[5] = Electronic tongue analysis (Taste-Sensing System SA 402B); set-up: unit not given here; conditions: reference solution 30 mM KCl + 0.3 mM tartaric acid as baseline, first measurement excluded; for Umami: sensor AAE; for Umami / Bitter / Sweet: detection threshold 0, room temperature; for Umami / Bitter / Sour / Salty: four replicates; for Sour: detection threshold -13, room temperature; for Salty: detection threshold -6, room temperature; for Sweet: measured five times
How it was run: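 Room-temperature electronic-tongue readings with five taste probes, calibrated against a reference of 30 mM KCl and 0.3 mM tartaric acid. Samples at 0.1 mg/mL and 1.0 mg/mL were measured four times, sweetness five times, and the first run was dropped. Detection cut-offs were sour −13, salty −6, others 0.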

[6] = tested on: human pancreatic ductal epithelial cells (HPNE)
Description: (§1) The cytotoxicity of 73 synthetic peptides was evaluated using four human cell lines: human pancreatic ductal epithelial cells (HPNE), human embryonic kidney cells (HEK293T), human umbilical vein endothelial cells (HUVEC), and human bronchial epithelial cells (BEAS-2B). When cell density reached 70% confluence, the complete culture medium was replaced with serum-free maintenance medium, and peptides were added at a final concentration of 100 μM for 36 h. Control groups received only serum-free maintenance medium without peptides. Cell proliferation was assessed using the CCK-8 assay kit (Solarbio, CA1210) according to the manufacturer’s instructions.

[7] = tested on: human bronchial epithelial cells (BEAS-2B)
Description: as §1

[8] = tested on: human embryonic kidney cells (HEK293T); assay: Cell viability assessment (CCK-8), HEK293T; conditions: CCK-8, mean of Data1-3 (n = 3)
[9] = tested on: human bronchial epithelial cells (BEAS-2B); assay: Cell viability assessment (CCK-8), BEAS-2B; conditions: BEAS-2B cells, CCK-8, mean of Data1-3 (n = 3)
Description: as §1

[10] = tested on: human umbilical vein endothelial cells (HUVEC); assay: Cell viability assessment (CCK-8), HUVEC; conditions: CCK-8, mean of Data1-3 (n = 3)
[11] = tested on: human pancreatic ductal epithelial cells (HPNE); assay: Cell viability assessment (CCK-8), HPNE; conditions: CCK-8, mean of Data1-3 (n = 3)
Description: as §1

Substance	Average hemolysis [2] [%]	Average cell viability, HEK293T [3]	Cell viability, HEK293T, Data1 [3]	Cell viability, HEK293T, Data2 [3]	Cell viability, HEK293T, Data3 [3]	Average cell viability, HUVEC [4]	Cell viability, HUVEC, Data1 [4]	Cell viability, HUVEC, Data2 [4]	Cell viability, HUVEC, Data3 [4]	Umami ([5]; peptide 0.1 mg/mL)	Umami ([5]; peptide 1 mg/mL)	Bitter ([5]; sensor C00, peptide 0.1 mg/mL)	Bitter ([5]; sensor C00, peptide 1 mg/mL)	Sour ([5]; sensor CA0, peptide 0.1 mg/mL)	Sour ([5]; sensor CA0, peptide 1 mg/mL)	Salty ([5]; sensor CT0, peptide 0.1 mg/mL)	Salty ([5]; sensor CT0, peptide 1 mg/mL)	Sweet ([5]; sensor GL1, peptide 0.1 mg/mL)	Sweet ([5]; sensor GL1, peptide 1 mg/mL)	Average cell viability, HPNE [6]	other results
KGDEESLA																					taste characteristics [1]: both umami and bitter characteristics
YGRGV [TaPep12]	0.43	102.93	99.46	109.02	100.32	94.89	90.77	98.75	95.16	3.01	-2.86	8.03	0.75	-6.74	6.59	-17.83	7.54	7.49	-7.92	102.90	Cell viability, HPNE, Data1 [6]: 110.82; Cell viability, HPNE, Data2 [6]: 91.75; Cell viability, HPNE, Data3 [6]: 106.12; Average cell viability, BEAS-2B [7]: 99.57; Cell viability, BEAS-2B, Data1 [7]: 102.99; Cell viability, BEAS-2B, Data2 [7]: 93.52; Cell viability, BEAS-2B, Data3 [7]: 102.19
YKYHES [TaPep13]	1.05									1.81	-4.92	7.46	-0.78	-3.77	12.34	-15.97	15.30	3.50	-4.65		Average cell viability, HEK293T [8]: 95.55; Average cell viability, BEAS-2B [9]: 101.89; Average cell viability, HUVEC [10]: 104.44; Average cell viability, HPNE [11]: 99.43
EPDDPDD [TaPep27]	1.02									0.54	-6.01	7.42	3.79	-0.70	14.83	-22.39	8.93	3.39	-6.25		Average cell viability, HEK293T [8]: 98.49; Average cell viability, BEAS-2B [9]: 105.85; Average cell viability, HUVEC [10]: 94.52; Average cell viability, HPNE [11]: 91.58
TAEQVA [TaPep33]		102.24	97.67	105.05	104.01	104.47	106.25	114.32	92.84	1.93	-0.93	7.77	3.28	-4.09	10.86	-19.69	10.92	8.49	-5.32	106.02	Cell viability, HPNE, Data1 [6]: 118.30; Cell viability, HPNE, Data2 [6]: 86.46; Cell viability, HPNE, Data3 [6]: 113.31; Average cell viability, BEAS-2B [7]: 98.57; Cell viability, BEAS-2B, Data1 [7]: 90.33; Cell viability, BEAS-2B, Data2 [7]: 99.90; Cell viability, BEAS-2B, Data3 [7]: 105.48
